Reference: patent US7300939B2, “Substituted 1-propiolylpiperazine compounds, their preparation and use” (Gruenenthal GmbH, priority 2005, dated 2007)
Where a name gives a salt, the structure may show the parent alone.

Columns and labels:
mGluR5 receptor [1] = molecular target: T1, mGluR5 receptor (Sus scrofa, UniProt I3LUI7); assay: [3H]-MPEP binding in the mGluR5 receptor binding assay (pig brain homogenate); settings: for mGluR5-receptor (% inhibition 10 μM) in pigs: pig brain homogenate, 5 nM [3H]-MPEP
T1 construct: from tissue; host or cells: pig brain halves without medulla, cerebellum and pons
T1 sequence (I3LUI7 19-1212): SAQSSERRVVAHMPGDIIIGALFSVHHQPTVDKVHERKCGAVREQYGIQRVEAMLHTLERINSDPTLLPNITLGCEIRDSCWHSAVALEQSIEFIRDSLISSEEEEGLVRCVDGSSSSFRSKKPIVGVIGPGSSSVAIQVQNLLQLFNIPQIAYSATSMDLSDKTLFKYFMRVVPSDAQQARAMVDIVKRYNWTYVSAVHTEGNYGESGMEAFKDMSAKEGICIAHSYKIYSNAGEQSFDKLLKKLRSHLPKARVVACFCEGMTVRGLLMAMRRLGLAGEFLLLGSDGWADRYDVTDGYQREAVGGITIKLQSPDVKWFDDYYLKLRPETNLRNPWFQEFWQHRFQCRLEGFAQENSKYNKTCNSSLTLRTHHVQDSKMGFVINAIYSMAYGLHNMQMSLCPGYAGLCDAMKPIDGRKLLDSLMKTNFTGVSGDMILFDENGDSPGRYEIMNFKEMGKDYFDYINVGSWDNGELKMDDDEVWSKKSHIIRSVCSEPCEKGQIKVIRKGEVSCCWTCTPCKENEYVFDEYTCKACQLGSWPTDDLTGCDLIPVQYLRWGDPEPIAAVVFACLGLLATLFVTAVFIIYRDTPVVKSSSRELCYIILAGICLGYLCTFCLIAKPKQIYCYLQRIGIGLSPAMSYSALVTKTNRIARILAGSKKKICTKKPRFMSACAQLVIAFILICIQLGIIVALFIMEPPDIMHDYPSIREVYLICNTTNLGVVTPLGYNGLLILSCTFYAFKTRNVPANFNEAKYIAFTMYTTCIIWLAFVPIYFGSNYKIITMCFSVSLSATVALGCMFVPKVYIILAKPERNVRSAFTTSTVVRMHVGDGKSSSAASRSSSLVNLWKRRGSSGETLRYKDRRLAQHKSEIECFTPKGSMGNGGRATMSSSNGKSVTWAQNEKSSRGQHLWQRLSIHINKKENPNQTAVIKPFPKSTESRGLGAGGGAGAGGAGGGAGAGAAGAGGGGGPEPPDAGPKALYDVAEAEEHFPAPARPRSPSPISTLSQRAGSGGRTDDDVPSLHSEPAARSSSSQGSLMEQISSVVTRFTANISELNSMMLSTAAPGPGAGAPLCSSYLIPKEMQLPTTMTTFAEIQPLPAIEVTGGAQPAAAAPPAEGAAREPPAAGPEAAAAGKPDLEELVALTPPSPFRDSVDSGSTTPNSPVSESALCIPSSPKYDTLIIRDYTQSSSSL
Description: I. Method the Determination of the Inhibition of the [^3H]-MPEP Binding in the mGluR5 Receptor Binding Assay
Pig brain homogenate is prepared by homogenization (Polytron PT 3000, Kinematica AG, 10,000 revolutions per minute 90 seconds) of pig brain halves without medulla, cerebellum and pons in a buffer solution having a pH of 8.0 (30 mM of hepes, Sigma, order no. H3375+1 tablet of Complete to 100 ml, Roche Diagnostics, order no. 1836145) in a ratio of 1:20 (brain weight/volume) and differential centrifugation at 900×g and 40,000×g. In each case 450 μg of protein from brain homogenate are incubated with 5 nM [^3H]-MPEP (Tocris, order no. R1212) (MPEP=2-methyl-6-(3-methoxyphenyl)ethynylpyridine) and the compounds to be investigated (10 μM in the test) in a buffer solution (as above) in 250 μl incubation batches in 96-well microtiter plates at room temperature 60 min.
Thereafter, the batches are filtered with the aid of a Brandel cell harvester (Brandel, Robotic 9600 model) onto Unifilter plates with glass fiber filter mats (Perkin Elmer, order no. 6005177) and then rinsed with buffer solution (as above) 3 times with 250 μl per sample each time. The filter plates are then dried 60 min at 55° C. 30 μl Ultima Gold™ scintillator (Packard BioScience, order no. 6013159) are subsequently added per well and, after 3 hours, the samples are measured on a β-counter (Mikrobeta, Perkin Elmer). The non-specific binding is determined by addition of 10 μM of MPEP (Tocris, order no. 1212).

mGluR5 receptor [2] = molecular target: T2, mGluR5 receptor (Rattus norvegicus, UniProt P31424); assay: Ca2+ influx in the mGluR5 receptor assay (rat cortical neurons, FlexStation); type: cell-based; settings: Table I; 10 μM DHPG
T2 construct: Cortical neurons are prepared from postnatal rats (P2-6) under sterile conditions; endogenous in cells; host or cells: primary cortical neurons from postnatal rats (P2-6)
T2 sequence (P31424 21-1203): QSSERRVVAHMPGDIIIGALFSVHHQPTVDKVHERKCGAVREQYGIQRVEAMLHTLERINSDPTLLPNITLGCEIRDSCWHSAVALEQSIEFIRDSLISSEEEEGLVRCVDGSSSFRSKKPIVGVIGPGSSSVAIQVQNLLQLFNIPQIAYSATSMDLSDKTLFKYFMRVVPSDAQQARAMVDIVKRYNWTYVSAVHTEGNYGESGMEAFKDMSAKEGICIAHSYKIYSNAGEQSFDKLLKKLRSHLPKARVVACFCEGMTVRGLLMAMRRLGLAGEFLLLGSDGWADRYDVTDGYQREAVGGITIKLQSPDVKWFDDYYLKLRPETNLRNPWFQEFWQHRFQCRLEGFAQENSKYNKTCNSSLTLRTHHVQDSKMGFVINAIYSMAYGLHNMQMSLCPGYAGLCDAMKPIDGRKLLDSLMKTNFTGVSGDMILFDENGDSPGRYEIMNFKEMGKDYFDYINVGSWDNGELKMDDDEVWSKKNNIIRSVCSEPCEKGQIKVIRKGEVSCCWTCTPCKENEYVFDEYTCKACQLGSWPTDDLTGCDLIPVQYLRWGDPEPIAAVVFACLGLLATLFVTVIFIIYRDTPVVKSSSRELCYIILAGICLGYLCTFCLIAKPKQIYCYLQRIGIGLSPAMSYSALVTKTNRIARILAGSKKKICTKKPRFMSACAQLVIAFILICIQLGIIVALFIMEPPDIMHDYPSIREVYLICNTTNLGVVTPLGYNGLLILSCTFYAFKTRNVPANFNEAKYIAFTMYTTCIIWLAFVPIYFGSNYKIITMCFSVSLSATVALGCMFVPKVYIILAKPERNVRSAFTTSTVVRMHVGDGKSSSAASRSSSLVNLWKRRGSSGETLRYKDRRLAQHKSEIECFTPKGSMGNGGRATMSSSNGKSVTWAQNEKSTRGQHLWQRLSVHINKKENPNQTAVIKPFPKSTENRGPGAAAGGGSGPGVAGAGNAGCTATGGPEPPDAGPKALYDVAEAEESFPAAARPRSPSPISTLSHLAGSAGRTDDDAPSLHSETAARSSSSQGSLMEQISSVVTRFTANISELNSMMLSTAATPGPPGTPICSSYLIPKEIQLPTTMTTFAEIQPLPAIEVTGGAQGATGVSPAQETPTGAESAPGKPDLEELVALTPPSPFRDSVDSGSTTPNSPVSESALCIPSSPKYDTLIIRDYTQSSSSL
Description: II. Method Determination of the Ca^2+ Influx in the mGluR5 Receptor Assay
An agonistic and/or antagonistic action of substances can be determined with the following assay on the mGluR5 receptor of the rat species. According to this assay, the intracellular release of Ca^2+ after activation of the mGluR5 receptor is quantified with the aid of a Ca^2+-sensitive dyestuff (Fluo-4 type, Molecular Probes Europe BV, Leiden, Holland) in a FlexStation (Molecular Devices, Sunnyvale, USA).
Preparation of Cortical Neurons: […]
For the functional investigation, the cells are loaded with 2 μM of Fluo-4 and 0.01 vol. % Pluronic F127 (Molecular Probes Europe BV, Leiden, Holland) in HBSS buffer solution (Hank's buffer saline solution, Gibco Invitrogen GmbH, Karlsruhe, Germany) 30 min at 37° C. […] The Ca^2+-dependent fluorescence is measured before and after the addition of substances (λex=485 nm, λem=525 nm). Quantification is effected by measurement of the highest fluorescence intensity over time. […] After incubation 3 minutes, 10 μM of DHPG ((S)-3,5-dihydroxyphenylglycine, Tocris Biotrend Chemikalien GmbH, Cologne, Germany) are applied and the influx of Ca^2+ is determined simultaneously. mGluR5 antagonists led to a suppression of the Ca^2+ influx. […]

rats = assay: Formalin test in rats; type: in vivo, rat

mGluR5-receptor (% inhibition 10 μM) in pigs (mGluR5 receptor [1])	IC50 (mGluR5 receptor [1]; Table II, unit inferred)	SMILES	also measured
–	–	O=C(C#Cc1ccccc1)N1CCN(c2nccs2)CC1 [Example 1, 1-(3-phenylpropiolyl)-4-(thiazol-2-yl)piperazine]	IC50 (mGluR5 receptor [1]; Table I): 100 nM; IC50 (mGluR5 receptor [2]): 190 nM
88%	–	O=C(C#Cc1cccc(Cl)c1)N1CCN(c2nccs2)CC1 [Example AAA24, 4-(Thiazol-2-yl)-1-(3-(3-chlorophenyl)propiolyl)piperazine]	Reduction of nociceptive behavior of rats compared with control rats [%] (rats; 46.4 mg/kg i.p.): 43%
97%	–	Cc1cccc(C#CC(=O)N2CCN(c3nccs3)CC2)c1.Cl [Example AAA54, 4-(Thiazol-2-yl)-1-(3-(3-tolyl)propiolyl)piperazine hydrochloride]	Reduction of nociceptive behavior of rats compared with control rats [%] (rats; 10.0 mg/kg i.v.): 72%
–	150 nM	O=C(C#Cc1ccccc1)N1CCN(c2nccs2)CC1 [Example AAA56, 4-(Thiazol-2-yl)-1-(3-phenylpropiolyl)piperazine hydrochloride]	Reduction of nociceptive behavior of rats compared with control rats [%] (rats; 46.4 mg/kg i.p.): 85%
–	13 nM	Cc1cccc(C#CC(=O)N2CCN(c3nccs3)CC2C)c1 (centres unmarked) [Example AAA68, 2-Methyl-4-(thiazol-2-yl)-1-(3-(3-tolyl)propiolyl)piperazine]	Reduction of nociceptive behavior of rats compared with control rats [%] (rats; 46.4 mg/kg p.o.): 66%
68%	–	Cc1noc(-c2cnc(N3CCN(C(=O)C#Cc4ccccc4)CC3)s2)n1 [Example AAA00106, 4-(5-(3-Methyl-1,2,4-oxadiazol-5-yl)thiazol-2-yl)-1-(3-phenylpropiolyl)piperazine]	–
30%	–	CC(C)(C)c1csc(N2CCN(C(=O)C#Cc3ccc(N)cc3)CC2)n1 [Example AAA00107, 4-(4-tert-Butylthiazol-2-yl)-1-(3-(4-aminophenyl)propiolyl)piperazine]	–
–	1240 nM	Cn1ccc2ccc(C#CC(=O)N3CCN(c4nccs4)CC3)cc21 [Example AAA00108, 4-(Thiazol-2-yl)-1-(3-(1-Methyl-indol-6-yl)propiolyl)piperazine]	–
–	1390 nM	Cc1cc(F)cc(C#CC(=O)N2CCN(c3nccs3)CC2)c1 [Example AAA00110, 4-(Thiazol-2-yl)-1-(3-(3-fluoro-5-methylphenyl)propiolyl)piperazine]	–
31%	–	Cc1cccc(C#CC(=O)N2CCN(c3nccs3)CC2)c1F [Example AAA00111, 4-(Thiazol-2-yl)-1-(3-(2-fluoro-3-methylphenyl)propiolyl)piperazine]	–
–	560 nM	CNc1cccc(C#CC(=O)N2CCN(c3nccs3)CC2)c1 [Example AAA00112, 4-(Thiazol-2-yl)-1-(3-(3-methylaminophenyl)propiolyl)piperazine]	–
27%	–	CN(C)c1cccc(C#CC(=O)N2CCN(c3nccs3)CC2)c1 [Example AAA00113, 4-(Thiazol-2-yl)-1-(3-(3-dimethylaminophenyl)propiolyl)piperazine]	–
14%	–	CN(C)C(=O)C#CC(=O)N1CCN(c2nccs2)CC1 [Example AAA00114, 4-(Thiazol-2-yl)-1-(dimethylcarbamoylpropiolyl)piperazine]	–
17%	–	C[S+]([O-])c1cccc(C#CC(=O)N2CCN(c3nccs3)CC2)c1 (centres unmarked) [Example AAA00115, 4-(Thiazol-2-yl)-1-(3-(3-methylsulfinylphenyl)propiolyl)piperazine]	–
31%	–	CS(=O)(=O)c1cccc(C#CC(=O)N2CCN(c3nccs3)CC2)c1 [Example AAA00116, 4-(Thiazol-2-yl)-1-(3-(3-methylsulfonylphenyl)propiolyl)piperazine]	–
–	26 nM	C#Cc1cccc(C#CC(=O)N2CCN(c3nccs3)CC2)c1 [Example AAA00117, 4-(Thiazol-2-yl)-1-(3-(3-ethynylphenyl)propiolyl)piperazine]	–
–	260 nM	CCc1cccc(C#CC(=O)N2CCN(c3nccs3)CC2)c1 [Example AAA00120, 4-(Thiazol-2-yl)-1-(3-(3-ethylphenyl)propiolyl)piperazine]	–
–	62 nM	O=C(C#Cc1cccc(C(F)F)c1)N1CCN(c2nccs2)CC1 [Example AAA00122, 4-(Thiazol-2-yl)-1-(3-(3-difluoromethylphenyl)propiolyl)piperazine]	–
